Measured values: the OligoGym collection
Several values for one entry are separate records, joined by “and”; a condition that tells them apart may be missing. Identical values can stand only once. HELM strings list units from the 5' end as sugar, base in round brackets, then linkage (d deoxyribose, r ribose, m 2'-O-methyl, p phosphodiester). Strings are as the collection lists them, not checked against the first reports. ss, as = sense and antisense strand; [una] = unlocked nucleic acid; [hna] = hexitol nucleic acid; [fl2r] = 2'-fluoro

conditions: siRNA
Note: test system not given here.

Point of comparison: “RNA1{r(U)p.[fl2r](U)p.r(A)p.r(C)p.r(C)p.r(C)p.r(C)p.r(G)p.r(A)p.r(U)p.r(U)p.r(C)p.r(A)p.r(G)p.r(C)p.r(C)p.r(U)p.r(C)p.r(U)p.r(T)p.r(T)}|RNA2{r(A)p.r(G)p.r(A)p.r(G)p.r(G)p.r(C)p.r(U)p.r(G)p.r(A)p.r(A)p.r(U)p.r(C)p.r(G)p.r(G)p.r(G)p.r(G)p.r(U)p.[fl2r](A)p.r(A)p.r(T)p.r(T)}$$$RNA1{StrandType:ss}|RNA2{StrandType:as}$”, target mRNA knockdown 69%. Against it:
- RNA1{r(G)p.r(G)p.r(A)p.r(A)p.r(G)p.r(U)p.r(C)p.r(C)p.m(A)p.r(C)p.r(C)p.r(U)p.r(U)p.r(C)p.r(U)p.r(C)p.r(C)p.r(G)p.r(A)p.r(T)p.r(T)}|RNA2{r(U)p.r(C)p.r(G)p.r(G)p.r(A)p.r(G)p.r(A)p.r(A)p.r(G)p.r(G)p.m(U)p.r(G)p.r(G)p.r(A)p.r(C)p.r(U)p.r(U)p.r(C)p.r(C)p.r(T)p.r(T)}$$$RNA1{StrandType:ss}|RNA2{StrandType:as}$ — lower, 54%
- RNA1{r(G)p.r(A)p.r(C)p.r(G)p.[hna](U)p.r(A)p.r(A)p.[hna](A)p.r(C)p.r(G)p.[hna](G)p.r(C)p.r(C)p.[hna](A)p.r(C)p.r(A)p.r(A)p.r(G)p.[hna](U)p.[hna](U)p.d(T)}|RNA2{r(A)p.r(C)p.[hna](U)p.r(U)p.r(G)p.r(U)p.r(G)p.r(G)p.r(C)p.r(C)p.r(G)p.r(U)p.r(U)p.r(U)p.r(A)p.r(C)p.r(G)p.[hna](U)p.[hna](C)p.[hna](G)p.d(T)}$$$RNA1{StrandType:ss}|RNA2{StrandType:as}$ — lower, 51.4%
- RNA1{r(U)p.r(U)p.r(U)p.r(C)p.r(A)p.r(C)p.r(U)p.r(A)p.r(C)p.r(U)p.r(C)p.r(C)p.r(U)p.r(A)p.r(C)p.r(G)p.r(A)p.r(G)p.r(C)p.d(T)p.d(T)}|RNA2{r(G)p.r(C)p.r(U)p.r(C)p.r(G)p.r(U)p.r(A)p.r(G)p.r(G)p.r(A)p.r(G)p.r(U)p.r(A)p.r(G)p.r(U)p.r(G)p.r(A)p.r(A)p.r(A)p.d(T)p.d(T)}$$$RNA1{StrandType:ss}|RNA2{StrandType:as}$ — lower, 0%
- RNA1{m(G)p.r(G)p.m(U)p.r(A)p.m(G)p.r(G)p.m(G)p.r(U)p.m(U)p.r(G)p.m(A)p.r(A)p.m(G)p.r(A)p.m(G)p.r(A)p.m(C)p.r(U)p.r(U)p.r(T)p.r(T)}|RNA2{r(A)p.r(A)p.r(G)p.r(U)p.r(C)p.r(U)p.r(C)p.r(U)p.r(U)p.r(C)p.r(A)p.r(A)p.m(C)p.r(C)p.r(C)p.r(U)p.m(A)p.r(C)p.r(C)p.r(T)p.r(T)}$$$RNA1{StrandType:ss}|RNA2{StrandType:as}$ — lower, 58%
- RNA1{r(U)p.r(C)p.r(C)p.r(U)p.r(C)p.r(G)p.r(U)p.r(C)p.[fl2r](G)p.r(U)p.r(C)p.[fl2r](U)p.[fl2r](G)p.r(U)p.r(U)p.r(C)p.[fl2r](U)p.r(A)p.r(A)p.r(T)p.r(T)}|RNA2{r(U)p.[fl2r](U)p.r(A)p.r(G)p.r(A)p.r(A)p.[fl2r](C)p.r(A)p.r(G)p.r(A)p.r(C)p.r(G)p.r(A)p.r(C)p.r(G)p.r(A)p.r(G)p.r(G)p.r(A)p.r(T)p.r(T)}$$$RNA1{StrandType:ss}|RNA2{StrandType:as}$ — higher, 77%
- RNA1{r(C)p.r(U)p.r(A)p.r(A)p.r(G)p.r(G)p.r(A)p.r(C)p.r(C)p.r(U)p.r(A)p.r(A)p.r(C)p.r(A)p.r(A)p.[una](A)p.r(G)p.[una](U)p.[una](U)p.r(U)p.r(U)}|RNA2{r(A)p.r(A)p.r(C)p.r(U)p.r(U)p.r(U)p.r(G)p.r(U)p.r(U)p.r(A)p.r(G)p.r(G)p.r(U)p.r(C)p.r(C)p.r(U)p.r(U)p.r(A)p.r(G)p.r(U)p.r(U)}$$$RNA1{StrandType:ss}|RNA2{StrandType:as}$ — higher, 70%

With “RNA1{r(A)p.r(G)p.r(U)p.[fl2r](U)p.r(A)p.r(A)p.r(C)p.r(C)p.r(C)p.r(G)p.r(G)p.r(G)p.r(A)p.r(C)p.r(U)p.[fl2r](U)p.r(G)p.r(G)p.r(A)p.r(T)p.r(T)}|RNA2{r(U)p.r(C)p.[fl2r](C)p.r(A)p.r(A)p.r(G)p.r(U)p.r(C)p.r(C)p.r(C)p.r(G)p.r(G)p.r(G)p.r(U)p.[fl2r](U)p.r(A)p.r(A)p.r(C)p.r(U)p.r(T)p.r(T)}$$$RNA1{StrandType:ss}|RNA2{StrandType:as}$” the target mRNA knockdown was 85% and 86%.
